One assay relates to tyrosinase. Description: tyrosinase inhibition. Format: biochemical. The following applies: for individual tyrosinase inhibitory capability: isolated compounds; for tyrosinase 50% inhibitory concentration (IC50) of the individual phenolic compound: compound used in isolation.
The subject of another assay is melanocyte cells. As to the kind of experiment: inhibition of melanin release by melanocyte cells in vitro. Format: cell-based. From the text:
The inhibition of hyper-pigmentation is not restricted to inhibition at the enzyme level but melanin inhibition can also be achieved in vitro by the inhibition of melanin release by melanocyte cells.

For `O=c1c(-c2ccc(O)cc2)coc2cc(O)cc(O)c12` [Compound C5, 4′,5′7-trihydroxyisoflavone], the “individual tyrosinase inhibitory capability” value in the assay with tyrosinase is given as “exhibit individual tyrosinase inhibitory capabilities”. Turning to `O=C(/C=C/c1ccc(O)cc1)c1ccc(O)cc1O` [isoliquirtigenin, reference compound], the “tyrosinase 50% inhibitory concentration (IC50)” value on tyrosinase (L-tyrosine and DOPA used as substrates) came to 896.88 µg/mL. Take `O=c1c(O)c(-c2ccccc2)oc2cc(O)cc(O)c12` [Compound C4, 3,5,7-trihydroxyflavone]: at tyrosinase, the “tyrosinase 50% inhibitory concentration (IC50) of the individual phenolic compound” value turned out to be 2.23 µg/mL and the “individual tyrosinase inhibitory capability” value is listed as “exhibit individual tyrosinase inhibitory capabilities”. Besides, the melanin inhibited entry in the assay on melanocyte cells (at concentrations as low as 3.1 μg/ml) was “more than 50%”. On to `O=C(CCc1ccccc1)c1c(O)cc(O)cc1O` [Compound C3, 2′,4′,6′-trihydroxyhydrochalcone], for which, at tyrosinase, the “tyrosinase 50% inhibitory concentration (IC50) of the individual phenolic compound” value was determined as 17.86 µg/mL and the “individual tyrosinase inhibitory capability” value is reported as “exhibit individual tyrosinase inhibitory capabilities”.

As for `O=C1C[C@@H](c2ccccc2)Oc2cc(O)cc(O)c21` [Compound C1, 5,7-dihidroxyflavone[(2S)-pinocembrin]], the “individual tyrosinase inhibitory capability” value in the assay with tyrosinase was “exhibit individual tyrosinase inhibitory capabilities”. Regarding `COc1cc(O)c(C(=O)CCc2ccccc2)c(O)c1` [Compound C2, 2′,6′-dihydroxy-4′-methoxydihydrochalcone], on tyrosinase, the “tyrosinase 50% inhibitory concentration (IC50) of the individual phenolic compound” value stood at 21.42 µg/mL and the “individual tyrosinase inhibitory capability” value is on record as “exhibit individual tyrosinase inhibitory capabilities”. Further, in the assay with melanocyte cells (at 3.125 μg/ml), the melanin reduction was found to be 20%.

These data come from patent publication US10695283B2, “Extract of Greyia radlkoferi and use thereof” (UNIVERSITY OF PRETORIA, priority 2012, dated 2020).
